This note sets out measurements from patent EP0388510A1, “Pharmaceutical compositions and their use in the prophylaxis or the treatment of bacterial infectious diseases” (HOECHST AKTIENGESELLSCHAFT, priority 1989, dated 1990).

The test relates to Methicillin-resistente Staphylokokken. The test is described as follows: Minimal inhibitory concentration in the agar dilution test, 39 clinical isolates. Type of test: cell-based. Here is the method:
Der überraschend gefundene synergistische Effekt einer Kombination von Decaplanin und Cefpirom konnte auch mit 39 klinischen Isolaten (Methicillin-resistente Staphylokokken) gezeigt werden, von denen die meisten eine ausgeprägte Resistenz gegenüber Cefpirom zeigten (MHK > 16 µg/ml). Dazu wurde die minimale Hemmkonzentration im Agarverdünnungstest von Cefpirom, Decaplanin und einer Mischung gleicher Anteile von Cefpirom und Decaplanin bestimmt. Wie Fig. 1 zeigt, ist die antibakterielle Aktivität der Mischung deutlich höher als die jeder Einzelkomponente. Aus Fig. 1 geht hervor, daß die als Beurteilungskriterium üblicherweise herangezogene minimale Hemmkonzentration, bei der 90 % der Stämme gehemmt werden (MHK90%), für die Mischung beider Komponenten mit 0,7 µg/ml am niedrigsten ist. (MHK90% für Decaplanin: 3,5 µg/ml, MHK90% für Cefpirom: 64 µg/ml).
On the technique in general: In agar dilution, organisms are placed on agar that contains the substance at set levels.

As for `CO/N=C(\C(=O)N[C@@H]1C(=O)N2C(C(=O)[O-])=C(C[n+]3cccc4c3CCC4)CS[C@H]12)c1csc(N)n1` [Cefpirom], the MIC (read-out: MHK) is over 16 µg/mL. Moreover, the MIC90 (read-out: MHK90%) was found to be 64 µg/mL.

Take `CNC(CC(C)C)C(=O)NC1C(=O)NC(CC(N)=O)C(=O)NC2C(=O)NC3C(=O)NC(C(=O)NC(C(=O)O)c4cc(O)cc(O)c4-c4cc3ccc4O)C(OC3CC(C)(N)C(O)C(C)O3)c3ccc(cc3)Oc3cc2cc(c3OC2OC(CO)C(O)C(O)C2OC2OC(C)C(O)C(O)C2O)Oc2ccc(cc2Cl)C1O` (stereo not drawn) [Decaplanin]: the MHK90% (minimal inhibitory concentration at which 90 % of the 39 isolates are inhibited, from Fig. 1) is reported as 3,5 µg/ml.
